Row | Structure (SMILES) | melting point
1 | O=C(Nc1cccc(C(F)(F)F)c1F)C1C=Nc2cccc(=O)n21 (stereo not drawn) | 274 to 277 °C (dec.)
2 | Cc1ccc(F)c(NC(=O)C2C=Nc3cccc(=O)n32)c1 (stereo not drawn) | 280 to 285 °C (dec.)
3 | CCOc1ccc(NC(=O)C2C=Nc3cccc(=O)n32)c(F)c1 (stereo not drawn) | > 216 °C (dec.)
4 | Cc1cc(=O)n2c(C(=O)Nc3cc(F)ccc3F)c[nH]c2c1 | > 285 °C (dec.)
5 | O=C(Nc1ccc(OC(F)(F)F)cc1)C1C=Nc2cccc(=O)n21 (stereo not drawn) | 273 to 275 °C
6 | CN(C)CCOc1ccc(NC(=O)C2C=Nc3cccc(=O)n32)cc1 (stereo not drawn) | 198 to 210 °C
